Measured values taken from patent US20240343704A1, “HALO-SUBSTITUTED AMINO PYRIDINE COMPOUNDS AS INHIBITORS OF THE HAEMATOPOIETIC PROGENITOR KINASE 1 (HPK1)” (priority 2021, published 2024).

Target: T1, Recombinant (1-346) HPK1 (h) (Homo sapiens, UniProt Q92918)
T1 construct: Recombinant (1-346) HPK1 (h) is incubated with 8 mM MOPS pH 7.0
T1 sequence (Q92918 1-346): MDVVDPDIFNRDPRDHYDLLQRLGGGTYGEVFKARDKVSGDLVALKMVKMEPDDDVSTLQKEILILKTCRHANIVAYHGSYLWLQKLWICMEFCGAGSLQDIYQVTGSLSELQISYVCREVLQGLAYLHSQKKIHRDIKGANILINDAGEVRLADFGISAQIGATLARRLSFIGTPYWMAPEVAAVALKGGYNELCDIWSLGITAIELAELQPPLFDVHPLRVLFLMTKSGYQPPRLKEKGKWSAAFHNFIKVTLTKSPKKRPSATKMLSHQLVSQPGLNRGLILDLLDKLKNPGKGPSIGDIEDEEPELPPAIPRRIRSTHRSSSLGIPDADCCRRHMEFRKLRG
Test: HPK1 Human STE Kinase Enzymatic Radiometric Assay
Type: biochemical
Settings: read-out: HPK1 IC50 nM Range*
Experimental: A stock solution of 10 mM of test compound is prepared in DMSO. The compound plate was prepared by 3-fold and 9-point serial dilutions. […] The reaction is initiated by The addition of the Mg/ATP mix. After incubation for 40 minutes at RT, the reaction is stopped by the addition of phosphoric acid to a concentration of 0.5%.

SMILES	IC50
CN1CCc2c(cccc2-c2cc(-c3ccc4c(c3)CCNC4=O)c(N)nc2F)C1 [I-463, 6-(2-amino-6-fluoro-5-(2-methyl-1,2,3,4-tetrahydroisoquinolin-5-yl)pyridin-3-yl)-3,4-dihydroisoquinolin-1(2H)-one]	> 1000 nM
CN1CCc2c(cccc2-c2cc(-c3cc4c(cc3F)C(=O)NCC4)c(N)nc2F)C1 [I-464, 6-(2-amino-6-fluoro-5-(2-methyl-1,2,3,4-tetrahydroisoquinolin-5-yl)pyridin-3-yl)-7-fluoro-3,4-dihydroisoquinolin-1(2H)-one]	> 1000 nM
Cc1nc2cc(-c3cc(-c4ccc(N5CCN(C(C)C)CC5)cc4)c(F)nc3N)ccc2c(=O)n1N [I-465, 3-amino-7-(2-amino-6-fluoro-5-(4-(4-isopropylpiperazin-1-yl)phenyl)pyridin-3-yl)-2-methylquinazolin-4(3H)-one]	101 to 1000 nM
CC(C)N1CCN(c2ccc(-c3cc(-c4ccc5c(=O)[nH]cc(Cl)c5c4)c(N)nc3F)cc2)CC1 [I-466, 6-(2-amino-6-fluoro-5-(4-(4-isopropylpiperazin-1-yl)phenyl)pyridin-3-yl)-4-chloroisoquinolin-1(2H)-one]	11 to 100 nM
Cc1nc2cc(-c3cc(-c4ccc([C@]56C[C@H]5CN(C)C6)cc4)c(F)nc3N)ccc2c(=O)[nH]1 [I-468, 7-(2-amino-6-fluoro-5-(4-((1S,5R)-3-methyl-3-azabicyclo[3.1.0]hexan-1-yl)phenyl)pyridin-3-yl)-2-methylquinazolin-4(3H)-one]	11 to 100 nM
Cc1nc2cc(-c3cc(-c4ccc([C@]56C[C@H]5CN(C)C6)cc4)c(F)nc3N)cc(F)c2c(=O)[nH]1 [I-469, 7-(2-amino-6-fluoro-5-(4-((1S,5R)-3-methyl-3-azabicyclo[3.1.0]hexan-1-yl)phenyl)pyridin-3-yl)-5-fluoro-2-methylquinazolin-4(3H)-one]	11 to 100 nM
Cc1nc2cc(-c3cc(-c4ccc(N5CCOCC5)c(CN(C)C)c4)c(F)nc3N)ccc2c(=O)[nH]1 [I-474, 7-(2-amino-5-(3-((dimethylamino)methyl)-4-morpholinophenyl)-6-fluoropyridin-3-yl)-2-methylquinazolin-4(3H)-one]	11 to 100 nM
Cc1nc2cc(-c3cc(-c4ccc(N5CCOCC5)c(CN(C)C)c4)c(F)nc3N)cc(F)c2c(=O)[nH]1 [I-475, 7-(2-amino-5-(3-((dimethylamino)methyl)-4-morpholinophenyl)-6-fluoropyridin-3-yl)-5-fluoro-2-methylquinazolin-4(3H)-one]	11 to 100 nM
Nc1nc(F)c(-c2ccc(C3=CCOCC3)cc2C2CNC(=O)C2)cc1-c1cc2c(cc1F)C(=O)NCC2 (centres unmarked) [I-478, 6-(2-amino-5-(4-(3,6-dihydro-2H-pyran-4-yl)-2-(5-oxopyrrolidin-3-yl)phenyl)-6-fluoropyridin-3-yl)-7-fluoro-3,4-dihydroisoquinolin-1(2H)-one]	> 1000 nM
Nc1nc(F)c(-c2ccc(C3CCOCC3)cc2C2CNC(=O)C2)cc1-c1cc2c(cc1F)C(=O)NCC2 (centres unmarked) [I-479, 6-(2-amino-6-fluoro-5-(2-(5-oxopyrrolidin-3-yl)-4-(tetrahydro-2H-pyran-4-yl)phenyl)pyridin-3-yl)-7-fluoro-3,4-dihydroisoquinolin-1(2H)-one]	> 1000 nM
CN(C)Cc1cc(-c2cc(-c3ccc4c(=O)[nH]cc(F)c4c3)c(N)nc2F)ccc1N1CCOCC1 [I-480, 6-(2-amino-5-(3-((dimethylamino)methyl)-4-morpholinophenyl)-6-fluoropyridin-3-yl)-4-fluoroisoquinolin-1(2H)-one]	11 to 100 nM
Cc1nc2cc(-c3cc(-c4ccc(N5CCN(CCC(F)F)CC5)cc4)c(F)nc3N)cc(F)c2c(=O)[nH]1 [I-485, 7-(2-amino-5-(4-(4-(3,3-difluoropropyl)piperazin-1-yl)phenyl)-6-fluoropyridin-3-yl)-5-fluoro-2-methylquinazolin-4(3H)-one]	11 to 100 nM
CN(C)Cc1cc(-c2cc(-c3cc4c(cc3F)C(=O)NCC4)c(N)nc2F)ccc1N1CCSCC1 [I-488, 6-(2-amino-5-(3-((dimethylamino)methyl)-4-thiomorpholinophenyl)-6-fluoropyridin-3-yl)-7-fluoro-3,4-dihydroisoquinolin-1(2H)-one]	0.1 to 10 nM
CC(C)N1CCN(c2ccc(-c3cc(-c4cc(F)c5c(=O)[nH]cc(Cl)c5c4)c(N)nc3F)cc2)CC1 [I-489, 6-(2-amino-6-fluoro-5-(4-(4-isopropylpiperazin-1-yl)phenyl)pyridin-3-yl)-4-chloro-8-fluoroisoquinolin-1(2H)-one]	0.1 to 10 nM
Cc1nc2cc(-c3cc(-c4ccc(C5CCOCC5)c(CN(C)C)c4)c(F)nc3N)cc(F)c2c(=O)[nH]1 [I-490, 7-(2-amino-5-(3-((dimethylamino)methyl)-4-(tetrahydro-2H-pyran-4-yl)phenyl)-6-fluoropyridin-3-yl)-5-fluoro-2-methylquinazolin-4(3H)-one]	11 to 100 nM
Nc1nc(F)c(-c2ccc(N3CCOCC3)c(CN3CCCC3)c2)cc1-c1ccc2c(c1)CCNC2=O [I-491, 6-(2-amino-6-fluoro-5-(4-morpholino-3-(pyrrolidin-1-ylmethyl)phenyl)pyridin-3-yl)-3,4-dihydroisoquinolin-1(2H)-one]	11 to 100 nM

Second part, the compound after the results:

IC50	SMILES
0.1 to 10 nM	CN(C)Cc1cc(-c2cc(-c3cc4c(cc3F)C(=O)NCC4)c(N)nc2F)ccc1N1CCN(C2CCC2)CC1 [I-462, 6-(2-amino-5-(4-(4-cyclobutylpiperazin-1-yl)-3-((dimethylamino)methyl)phenyl)-6-fluoropyridin-3-yl)-7-fluoro-3,4-dihydroisoquinolin-1(2H)-one]
0.1 to 10 nM	Cc1nc2cc(-c3cc(-c4ccc(N5CCN(CCCC(F)F)CC5)cc4)c(F)nc3N)cc(F)c2c(=O)[nH]1 [I-467, 7-(2-amino-5-(4-(4-(4,4-difluorobutyl)piperazin-1-yl)phenyl)-6-fluoropyridin-3-yl)-5-fluoro-2-methylquinazolin-4(3H)-one]
0.1 to 10 nM	CN1C[C@@H]2C[C@]2(c2ccc(-c3cc(-c4ccc5c(=O)[nH]cc(F)c5c4)c(N)nc3F)cc2)C1 [I-470, 6-(2-amino-6-fluoro-5-(4-((1S,5R)-3-methyl-3-azabicyclo[3.1.0]hexan-1-yl)phenyl)pyridin-3-yl)-4-fluoroisoquinolin-1(2H)-one]
0.1 to 10 nM	Cc1c[nH]c(=O)c2ccc(-c3cc(-c4ccc([C@]56C[C@H]5CN(C)C6)cc4)c(F)nc3N)cc12 [I-471, 6-(2-amino-6-fluoro-5-(4-((1S,5R)-3-methyl-3-azabicyclo[3.1.0]hexan-1-yl)phenyl)pyridin-3-yl)-4-methylisoquinolin-1(2H)-one]
0.1 to 10 nM	Cc1nc2cc(-c3cc(-c4ccc(N5CCN(C6CCC6)CC5)cc4)c(F)nc3N)ccc2c(=O)[nH]1 [I-472, 7-(2-amino-5-(4-(4-cyclobutylpiperazin-1-yl)phenyl)-6-fluoropyridin-3-yl)-2-methylquinazolin-4(3H)-one]
0.1 to 10 nM	Cc1nc2cc(-c3cc(-c4ccc(N5CCN(C6CCC6)CC5)cc4)c(F)nc3N)cc(F)c2c(=O)[nH]1 [I-473, 7-(2-amino-5-(4-(4-cyclobutylpiperazin-1-yl)phenyl)-6-fluoropyridin-3-yl)-5-fluoro-2-methylquinazolin-4(3H)-one]
0.1 to 10 nM	Nc1nc(F)c(-c2ccc(N3CCN(CCC(F)F)CC3)cc2)cc1-c1ccc2c(c1)CCNC2=O [I-476, 6-(2-amino-5-(4-(4-(3,3-difluoropropyl)piperazin-1-yl)phenyl)-6-fluoropyridin-3-yl)-3,4-dihydroisoquinolin-1(2H)-one]
0.1 to 10 nM	Nc1nc(F)c(-c2ccc(N3CCN(CCC(F)F)CC3)cc2)cc1-c1cc2c(cc1F)C(=O)NCC2 [I-477, 6-(2-amino-5-(4-(4-(3,3-difluoropropyl)piperazin-1-yl)phenyl)-6-fluoropyridin-3-yl)-7-fluoro-3,4-dihydroisoquinolin-1(2H)-one]
0.1 to 10 nM	CC(C)N1CCN(c2ccc(-c3cc(-c4cc(F)c5c(=O)[nH]cc(F)c5c4)c(N)nc3F)cc2)CC1 [I-482, 6-(2-amino-6-fluoro-5-(4-(4-isopropylpiperazin-1-yl)phenyl)pyridin-3-yl)-4,8-difluoroisoquinolin-1(2H)-one]
0.1 to 10 nM	Nc1nc(F)c(-c2ccc(N3CCN(CC4CC4)CC3)cc2)cc1-c1cc(F)c2c(=O)[nH]cc(F)c2c1 [I-483, 6-(2-amino-5-(4-(4-(cyclopropylmethyl)piperazin-1-yl)phenyl)-6-fluoropyridin-3-yl)-4,8-difluoroisoquinolin-1(2H)-one]
0.1 to 10 nM	Cc1nc2cc(-c3cc(-c4ccc(N5CCN(CCCC(F)F)CC5)cc4)c(F)nc3N)ccc2c(=O)[nH]1 [I-484, 7-(2-amino-5-(4-(4-(4,4-difluorobutyl)piperazin-1-yl)phenyl)-6-fluoropyridin-3-yl)-2-methylquinazolin-4(3H)-one]
0.1 to 10 nM	CN(C)Cc1cc(-c2cc(-c3cc(F)c4c(c3)CCNC4=O)c(N)nc2F)ccc1N1CCOCC1 [I-486, 6-(2-amino-5-(3-((dimethylamino)methyl)-4-morpholinophenyl)-6-fluoropyridin-3-yl)-8-fluoro-3,4-dihydroisoquinolin-1(2H)-one]
0.1 to 10 nM	CN(C)Cc1cc(-c2cc(-c3ccc4c(c3)CCNC4=O)c(N)nc2F)ccc1N1CCSCC1 [I-487, 6-(2-amino-5-(3-((dimethylamino)methyl)-4-thiomorpholinophenyl)-6-fluoropyridin-3-yl)-3,4-dihydroisoquinolin-1(2H)-one]
